Literature values in patent US20100267624A1 (priority 2007, published 2010).
Structures can show the parent of a compound that is named as a salt.

solubility in organic solvents (organic solvents): poorly soluble
solubility in water (water): very soluble
SMILES: CN[C@H](CC(C)C)C(=O)N[C@H]1C(=O)N[C@@H](CC(N)=O)C(=O)N[C@H]2C(=O)N[C@H]3C(=O)N[C@H](C(=O)N[C@H](C(=O)O)c4cc(O)cc(O)c4-c4cc3ccc4O)[C@H](O)c3ccc(c(Cl)c3)Oc3cc2cc(c3O[C@@H]2O[C@H](CO)[C@@H](O)[C@H](O)[C@H]2O[C@H]2C[C@](C)(N)[C@H](O)[C@H](C)O2)Oc2ccc(cc2Cl)[C@H]1O [Vancomycin Hydrochloride]
